The source of these data is patent publication US20240226069A1, “VAFIDEMSTAT FOR USE IN TREATING AUTISM SPECTRUM DISORDERS” (ORYZON GENOMICS, S.A., priority 2019, published 2024).

For the data set, the system named is ASD patients. Kind of data set: Phase IIa clinical trial (REIMAGINE), ASD cohort treated with vafidemstat for 8 weeks. In kind it is in vivo, human. Conditions: 1.2 mg/day oral. An excerpt:
As part of a Phase II a clinical trial (REIMAGINE trial, EudraCT number 2018-002140-88) to evaluate the safety, tolerability and efficacy of vafidemstat to treat aggression in adult population in patients with different CNS disorders, a cohort of ASD patients was recruited and treated with vafidemstat for 8 weeks. A summary of the protocol of this clinical trial and results obtained in the ASD cohort are provided below.
Reimagine is a unicenter, open-label, 1-arm, 8-week clinical study to evaluate the efficacy, safety and tolerability of vafidemstat in aggression in adult population with ASD, ADHD and BPD.
Main objective of the trial: To evaluate the safety and tolerability of vafidemstat in adult population with ASD ADHD and BPD.
Secondary objectives of the trial: To investigate the efficacy of vafidemstat in aggression in adult population with ASD ADHD and BPD.
Main inclusion criteria: • age 18-85 • current diagnosis for ASD, ADHD or BPD according to DSM-5 criteria • significant or persistent agitation or aggression that was disruptive to patient's daily living or put the patient in harm's way for at least 3 days per week for at least 4 weeks prior to screening visit
Treatment: All patients received vafidemstat (as free base) at a dose of 1.2 mg/day, administered orally as a single capsule, in a 5 days on/2 days off schedule, during 8 weeks.
Six ASD patients were recruited, but there was one drop-out, and therefore the results as described herein correspond to the 5 ASD subjects eligible for analysis. A summary of the patients recruited in this ASD cohort (demographic data at baseline) can be found in Table 1.
Evaluation of the effect of treatment with vafidemstat on aggression was performed using the NPI A/A as well as the CGI-I and CGI-S scales. The NPI A/A subscale is based on the NPI and consists of the 4 items in the NPI related to aggression/agitation, namely: agitation/aggression, disinhibition, irritability and aberrant motor disturbance. The severity of each of the 4 items in the NPI A/A scale is rated from 1 to 3 (1=mild, 2=moderate, 3=severe) and the NPI A/A score is calculated as the sum of the scores for all 4 items. CGI values reflect clinician's ratings of patient's aggression severity (CGI-S scale) and improvement in aggression from the initiation (baseline) of the treatment (CGI-I scale). In the CGI-I scale, change from initiation of treatment is rated using a seven-point scale, where 1=very much improved since initiation of treatment, 7=very much worse since initiation of treatment, and 4=no change from baseline. In the CGI-S scale, illness/condition severity is rated using a seven-point scale, the higher the score, the more severe the illness/condition, with 1=normal, not at all ill and 7=among the most extremely ill patients.
In addition to assessing its effect on aggression, the effect of treatment with vafidemstat on ASD patients was also evaluated using the total NPI scale and the NPI non-aggression related combined score. The total NPI scale consists of 12 items relating to a variety of neuropsychiatric domains (namely: delusions, hallucinations, agitation/aggression, depression, anxiety, euphoria/elation, apathy/indifference, disinhibition, irritability, aberrant motor disturbance, nighttime behavior, and appetite/eating disorders) and was used to measure global functioning in ASD patients. The severity of each item in the NPI is rated from 1 to 3 (1=mild, 2=moderate, 3=severe) and the total NPI score is calculated as the sum of the scores for all 12 items. The NPI non-aggression related combined score is the NPI combined score for all other items in the NPI not related to aggression or agitation (8 items; namely: delusions, hallucinations, depression, anxiety, euphoria/elation, apathy/indifference, nighttime behavior, and appetite/eating disorders). […]

Where [1] appears, read: adult ASD patients, 5 days on/2 days off, 8 weeks.

`Nc1nnc(CN[C@@H]2C[C@H]2c2ccc(OCc3ccccc3)cc2)o1` [Vafidemstat, 5-((((1R,2S)-2-(4-(benzyloxy)phenyl)cyclopropyl)amino)methyl)-1,3,4-oxadiazol-2-amine]: where the note is “5 ASD patients, baseline vs 2 months of treatment, p=0.0019 (FIG. 4)”, the “total NPI score (12 items), visit 1 to visit 7” value is “statistically significant reduction”. The “NPI non-aggression related combined score (8 items), visit 1 to visit 7” value (5 ASD patients, baseline vs 2 months of treatment, p=0.0142 (FIG. 5)) is recorded as “statistically significant reduction”. In addition, the “CGI-S value, visit 1 to visit 7” value (5 ASD patients, baseline vs 8 weeks treatment, no paired test could be calculated (FIG. 3)) is “reduction”. Further, the “CGI-I value, visit 1 to visit 7” value (5 ASD patients, baseline vs 8 weeks treatment, p=0.0019 (FIG. 2)) was “statistically significant reductions”. For the same molecule, the “NPI A/A (4-item agitation/aggression subscale) value, visit 1 to visit 7” value (5 ASD patients, baseline vs 8 weeks treatment, p=0.0098 (FIG. 1)) is given as “statistically significant reductions”. Besides, under setting [1], the safety and tolerability result was “safe and well tolerated, without significant adverse events”; the sedation result is listed as “No sedation”. For the same molecule, where the note is “n=6 ASD patients, baseline vs 8 weeks treatment, p=0.0006 (FIG. 6)”, the “CGI-S score, visit 1 to visit 7, cohort with one additional patient” value is “statistically significant reduction”.
